According to patent US9663439B2, “Aildenafil citrate crystal form O, preparation method and use thereof” (priority 2010, dated 2017):
Where a name gives a salt, the structure may show the parent alone.

Legend:
castrated mice = test: Determination for sexual function of castrated mice; type: in vivo, Kunming strain mouse; conditions: 15 mg/kg^−1, ig, 60 min after feeding the drug
Source text: Pharmacodynamic study: determination for sexual function of castrated mice 60 Kunming strain mouse (feeding 60 mouse with 18 g to 22 g weight in the same period) are randomly divided into 6 groups, each 10 mouse per group, wherein, 5 groups of mouse are implemented with bilateral orchidectomy under ether anesthesia state to have castration treatment, and the rest one group of mouse are only implemented with surgical separation, without removing the testicles, which can be taken as a sham operation control group. Each group of mouse are fed in cage, and are tested after 3 d. The sham operation control group and the model control group are fed with 0.5% CMC, […] crystal form O, the positive control group is fed with 6 mg·kg^−1 of Sildenafil; all are ig delivery modes, and the dose volumes are all 10 ml·kg^−1. Putting the single male mice in the cage 60 min after feeding the drug, and adding one female mice in each cage, recording the time that the male mice firstly catches the female mice since the female mice is put in the cage (namely, the capture incubation period), and recording the back-climbing times of the male mice within 30 min.

[1] = Influencing factor test (high temperature, high humidity, illumination); type: physicochemical
[2] = High-temperature test (first line; 60+/−2° C.), 0 month
[3] = High-temperature test (first line; 60+/−2° C.), 0.5 month
[4] = High-temperature test (first line; 60+/−2° C.), 1 month
[5] = High-temperature test (second line so named), 0 month
[6] = High-temperature test (second line so named), 0.5 month
[7] = High-temperature test (second line so named), 1 month
[8] = Illumination test (4500 lx+/−500 lx), 0 month
[9] = Illumination test (4500 lx+/−500 lx), 0.5 month
[10] = Illumination test (4500 lx+/−500 lx), 1 month
[11] = high light (4500 lx+/−500 lx), high temperature (60+/−2° C.), high humidity (RH 92.5%), 0 to 1 month

Appearance [1, 2]: White
Contents (HPLC area normalization method) [1, 2]: 99.96%
Related articles [1, 2]: 0.04%
Appearance [1, 3]: White
Contents (HPLC area normalization method) [1, 3]: 99.96%
Infrared absorption spectrum [1, 3]: Unchanged
PXRD [1, 3]: Unchanged
Related articles [1, 3]: 0.04%
Appearance [1, 4]: White
Contents (HPLC area normalization method) [1, 4]: 99.95%
Infrared absorption spectrum [1, 4]: Unchanged
PXRD [1, 4]: Unchanged
Related articles [1, 4]: 0.04%
Appearance [1, 5]: White
Contents (HPLC area normalization method) [1, 5]: 99.96%
Related articles [1, 5]: 0.04%
Appearance [1, 6]: White
Contents (HPLC area normalization method) [1, 6]: 99.95%
Infrared absorption spectrum [1, 6]: Unchanged
PXRD [1, 6]: Unchanged
Related articles [1, 6]: 0.04%
Appearance [1, 7]: White
Contents (HPLC area normalization method) [1, 7]: 99.96%
Infrared absorption spectrum [1, 7]: Unchanged
PXRD [1, 7]: Unchanged
Related articles [1, 7]: 0.05%
Appearance [1, 8]: White
Contents (HPLC area normalization method) [1, 8]: 99.96%
Related articles [1, 8]: 0.04%
Appearance [1, 9]: White
Contents (HPLC area normalization method) [1, 9]: 99.96%
Infrared absorption spectrum [1, 9]: Unchanged
PXRD [1, 9]: Unchanged
Related articles [1, 9]: 0.04%
Appearance [1, 10]: White
Contents (HPLC area normalization method) [1, 10]: 99.96%
Infrared absorption spectrum [1, 10]: Unchanged
PXRD [1, 10]: Unchanged
Related articles [1, 10]: 0.04%
chemical stability (related articles and contents) [1, 11]: excellent chemical stability
crystal form stability (appearance, PXRD, infrared absorption spectrum) [1, 11]: stable
SMILES: CCCc1nn(C)c2c(=O)[nH]c(-c3cc(S(=O)(=O)N4C[C@@H](C)N[C@@H](C)C4)ccc3OCC)nc12 [Aildenafil citrate crystal form O]
capture incubation period shortened (castrated mice): 201%
capture times increased (castrated mice; within 30 min): 4.4 times
